Values joined by “and” are separate entries in the source; they are usually repeats but may differ in a detail not shown here. Equal values may be shown once. Marks after values point to notes of the source that are not given here. Ends that are not written are not given here.
Experiment: ThT assay lag-time (fibrillation propensity, physical stability)
Type: physicochemical
From the text: ThT is widely used to visualize and quantify the presence of misfolded peptide and protein aggregates called amyloids or fibrils. ThT is a fluorescent molecule that binds to inter molecular beta-sheets in peptides and proteins (here AnxA1). […] A weaker fluorescence intensity is indicative of less amyloids or fibrils present with fewer intermolecular beta-sheets where ThT can bind. Some peptides have a tendency to form fibrils and amyloids and the propensity is dependent on the formulation conditions in an unpredictable manor. Fibrillation is a stochastic process and to avoid long analysis times and both false negatives and positive results, shear stress is introduced to the sample by rigorous rotation in microtiter plates while continuously monitoring the fluorescence emission at approximately 486 nm. An increase in the fluorescence is an indication of the formation of amyloids or fibrils and the time it takes for the fluorescence to start increasing is known as the lag-time. A faster (short) lag-time is an indication of higher propensity for the peptide to degrade by formation of fibrils or amyloids. A ThT fluorescence of 50 AU at t=0 is considered noise or background. Lag time is reported as the time it takes for the signal intensity to exceed 50 AU. All samples for the ThT assay were filtered through cellulose acetate filters ([…], Ø=13 mm, rinsed with MilliQ® water prior to filtration). For each sample, 20 μL ThT of a 1 mM solution was added to 1 mL peptide solution. From this sample mixture, 200 μL was transferred into n wells in a 96 well microtiter plate (n=3-6). 96-well NUNC plates Bottom optics and Sealing tape, Thermo Scientific™ Nunc™ Sealing Tapes, was used. Lag-time is reported as an average of n samples. A fluorescence plate reader (CLARIOstar® Plus, BMG Labtech) was used for the experiments with the following setting: Excitation wavelength 450 nm; Dichroic filter 465 nm; Emission wavelength 486 nm; Focal height 3.5 mm; Gain 1000; […]; […]; Number of flashes per well 20; Temperature 25° C.; Shake mode orbital, Frequency of 300 rpm, 200 s, and shake after each cycle. If possible, the average of all ThT data replicates are used for ThT lag-time determination. In case of very stochastic data, worst-case data is used for lag-time evaluation. ThT lag-time was determined using either a 1-step or 2-step sigmoidal curve.

AMVSEFLKQAWFIENEEQEYVQTLKSSKGGPGSAVSPYPTFNPSSDV-NH2 [AnxA1]
fibrillation in ThT assay (6.4 mg/mL, possibly 5.0 mg/ml, and above, 0.9% NaCl): already degraded by the formation of fibrils at time zero | lag-time (10 mM tris, pH 7.5, AnxA1 1.7 mg/mL containing 5% mannitol or sorbitol): > 65 h | Lag-time (AnxA1 1.4 mg/mL, mannitol 4 wt.%, sucrose 2.5 wt.%, glycyl-glycine 50 mM, pH 8.5): >65 h | Lag-time (AnxA1 1.4 mg/mL, sucrose 10 wt.%, glycyl-glycine 50 mM, pH 8.5): >65 h | Avg. lag-time (AnxA1 1.5 mg/mL, NaCl 0.9%, ZnCl2 0.77 mM, pH N/A): 1.8 h | Avg-lag time (AnxA1 1.5 mg/mL, glucose 5 wt.%, pH 7.1): 21.7 h | Lag-time (AnxA1 1.5 mg/mL, mannitol 4 wt.%, sucrose 2.5 wt.%, glycyl-glycine 10 mM, pH 7.5): >65 h | Lag-time (AnxA1 1.5 mg/mL, mannitol 4 wt.%, sucrose 2.5 wt.%, glycyl-glycine 50 mM, pH 7.6): >65 h | Lag-time (AnxA1 1.5 mg/mL, mannitol 5 wt.%, glycyl-glycine 10 mM, pH 7.4, analysis timeframe 65 hours): >65* hours | Lag-time (AnxA1 1.5 mg/mL, mannitol 5 wt.%, glycyl-glycine 50 mM, pH 7.5): >65 h | Lag-time (AnxA1 1.5 mg/mL, sucrose 10 wt.%, Tris 10 mM, pH 7.5): 42.8 h | Lag-time (AnxA1 1.5 mg/mL, sucrose 10 wt.%, glycyl-glycine 10 mM, pH 8.3): >65 h | Avg. lag-time (AnxA1 1.6 mg/mL in Milli Q water, no salt, pH 7.5, maximum assay time 50 hours): >50.0* h | Avg. lag-time (AnxA1 1.6 mg/mL in Milli Q water, no salt, pH 7.6, maximum assay time 50 hours): >50.0* h | Avg. lag-time (AnxA1 1.6 mg/mL, 0.9% NaCl in Milli Q water, pH 7.1): 28.3 h | Avg. lag-time (AnxA1 1.6 mg/mL, CaCl2 0.77 mM, pH 7.2): 12.5 h | Avg. lag-time (AnxA1 1.6 mg/mL, CaCl2 0.77 mM, pH 7.4): 10.8 h | Avg. lag-time (AnxA1 1.6 mg/mL, NaCl 0.9%, CaCl2 0.77 mM, pH 7.1): 5.4 h | Lag-time (AnxA1 1.6 mg/mL, mannitol 4 wt.%, sucrose 2.5 wt.%, glycyl-glycine 10 mM, pH 8.4): >65 h | Lag-time (AnxA1 1.6 mg/mL, mannitol 5 wt.%, glycyl-glycine printed as 'e' mM, pH 8.3): >65 h | Lag-time (AnxA1 1.6 mg/mL, mannitol 5 wt.%, glycylglycine 10 mM, pH 8.0, no increase in fluorescence within 65 hours): > 65* hours | Avg-lag time (AnxA1 1.6 mg/mL, mannitol 5 wt.%, pH 6.7, no increase in fluorescence within 65 hours): > 65* h | Lag-time (AnxA1 1.6 mg/mL, sucrose 10 wt.%, glycyl-glycine 50 mM, pH 7.6): 64.7 h | Lag-time (AnxA1 1.6 mg/mL, sucrose 10 wt.%, glycylglycine 10 mM, pH 8.0, no increase in fluorescence within 65 hours): > 65* hours | Avg-lag time (AnxA1 1.6 mg/mL, sucrose 10 wt.%, pH 7.2, no increase in fluorescence within 65 hours): > 65* h | Avg-lag time (AnxA1 1.6 mg/mL, trehalose 10 wt.%, pH 7.2): 33.3 h | Avg. lag-time (AnxA1 1.7 mg/mL in Milli-Q water, pH 7.4, no increase in fluorescence within 65 hours): > 65* h | Lag-time (AnxA1 1.7 mg/mL, mannitol 5 wt.%, Tris 10 mM, pH 7.5, no increase in fluorescence within 65 hours): > 65* hours | Lag-time (AnxA1 1.7 mg/mL, sorbitol 5 wt.%, Tris 10 mM, pH 7.6, no increase in fluorescence within 65 hours): > 65* hours | Lag-time (AnxA1 1.7 mg/mL, sorbitol 5 wt.%, glycylglycine 10 mM, pH 8.0, no increase in fluorescence within 65 hours): > 65* hours | Avg. lag-time (AnxA1 3.1 mg/mL in Milli-Q water, pH 7.4): 50.4 h | Lag-time (AnxA1 3.1 mg/mL, mannitol 5 wt.%, glycylglycine 10 mM, pH 8.0, no increase in fluorescence within 65 hours): > 65* hours | Avg. lag-time (AnxA1 3.2 mg/mL in Saline (0.9% NaCl), pH 7.4): 5.6 h | Avg. lag-time (AnxA1 3.2 mg/mL, 0.9% NaCl in Milli Q water, pH 7.4): 9.3 h | Avg. lag-time (AnxA1 3.2 mg/mL, NaCl 0.9%, pH 7.2): 9.7 h | Lag-time (AnxA1 3.2 mg/mL, mannitol 5 wt.%, glycylglycine 10 mM, pH 8.0, no increase in fluorescence within 65 hours): > 65* hours | Lag-time (AnxA1 3.3 mg/mL, mannitol 5 wt.%, glycylglycine 10 mM, pH 8.0, no increase in fluorescence within 65 hours): > 65* hours | Lag-time (AnxA1 4.0 mg/mL, mannitol 5 wt.%, glycyl-glycine 10 mM, pH 8.2): >65 h | Lag-time (AnxA1 4 mg/mL, tonicity 100%, NaCl 0.9 wt%, positive control sample in 0.9% saline): 8.2* hours | Avg. lag-time (AnxA1 4.6 mg/mL in Milli-Q water, pH 7.4): 61.4 h | Lag-time (AnxA1 4.6 mg/mL, sorbitol 5 wt.%, glycylglycine 10 mM, pH 8.0, no increase in fluorescence within 65 hours): > 65* hours | Lag-time (AnxA1 4.6 mg/mL, sucrose 10 wt.%, glycyl-glycine 30 mM, pH 8.0): 39 h | Lag-time (AnxA1 4.7 mg/mL, mannitol 5 wt.%, Tris 10 mM, pH 7.5): 10.7 h | Lag-time (AnxA1 4.7 mg/mL, mannitol 5 wt.%, glycylglycine 10 mM, pH 8.0, no increase in fluorescence within 65 hours): > 65* hours | Lag-time (AnxA1 4.7 mg/mL, sorbitol 5 wt.%, Tris 10 mM, pH 7.5): 10.8 h | Lag-time (AnxA1 4.7 mg/mL, sucrose 10 wt.%, Tris 10 mM, pH 7.5): 11.1 h | Lag-time (AnxA1 4.7 mg/mL, sucrose 10 wt.%, glycyl-glycine 30 mM, pH 8.0 (two samples)): >65 h and 50 h | Lag-time (AnxA1 4.8 mg/mL, mannitol 5 wt.%, histidine 10 mM, pH 6.6): 42.1 h | Lag-time (AnxA1 4.8 mg/mL, sorbitol 5 wt.%, histidine 10 mM, pH 6.7): 21.3 h | Lag-time (AnxA1 4.8 mg/mL, sucrose 10 wt.%, glycylglycine 10 mM, pH 7.9, no increase in fluorescence within 65 hours): > 65* hours | Lag-time (AnxA1 4.8 mg/mL, sucrose 10 wt.%, histidine 10 mM, pH 6.6): 48.8 h | Avg. lag-time (AnxA1 5.0 mg/mL, 0.9% NaCl in Milli Q water, pH 7.3): 2.7 h | Lag-time (AnxA1 5 mg/mL, tonicity 80%, mannitol 3.2 wt.%, sucrose 0.8 wt.%, NaHCO3 10 mM, pH 8.41): <60 h | Lag-time (AnxA1 5 mg/mL, tonicity 80%, mannitol 3.2 wt.%, sucrose 0.8 wt.%, glycylglycine 10 mM, pH 8.40): <60 h | Lag-time (AnxA1 5 mg/mL, tonicity 100%, mannitol 4.0 wt.%, sucrose 1.0 wt.%, NaHCO3 10 mM, pH 8.40): <60 h | Lag-time (AnxA1 5 mg/mL, tonicity 100%, mannitol 4.0 wt.%, sucrose 1.0 wt.%, glycylglycine 10 mM, pH 8.39): <60 h | Lag-time (AnxA1 5 mg/mL, tonicity 120%, mannitol 4.8 wt.%, sucrose 1.2 wt.%, NaHCO3 10 mM, pH 8.40): <60 h | Lag-time (AnxA1 5 mg/mL, tonicity 120%, mannitol 4.8 wt.%, sucrose 1.2 wt.%, glycylglycine 10 mM, pH 8.41): <60 h | Lag-time (AnxA1 5 mg/mL, tonicity 200%, mannitol 8.0 wt.%, sucrose 2.0 wt.%, NaHCO3 10 mM, pH 8.44): <60 h | Lag-time (AnxA1 5 mg/mL, tonicity 200%, mannitol 8.0 wt.%, sucrose 2.0 wt.%, glycylglycine 10 mM, pH 8.40): <60 h | Avg. lag-time (AnxA1 6.1 mg/mL in Milli-Q water, pH 7.4): 29.6 h | Avg. lag-time (AnxA1 6.4 mg/mL, 0.9% NaCl in Milli Q water, pH 7.3): 0 h | Avg. lag-time (AnxA1 7.6 mg/mL, 0.9% NaCl in Milli Q water, pH 7.3): 0 h | Lag-time (AnxA1 7.7 mg/mL, sucrose 10 wt.%, glycyl-glycine 50 mM, pH 8.5): 29.5 h | Lag-time (AnxA1 7.8 mg/mL, mannitol 4 wt.%, sucrose 2.5 wt.%, glycyl-glycine 50 mM, pH 8.5): 31.5 h | Lag-time (AnxA1 7.9 mg/mL, sucrose 10 wt.%, glycyl-glycine 10 mM, pH 7.5): 23.8 h | Avg. lag-time (AnxA1 8.0 mg/mL in Milli-Q water, pH 7.4): 11.5 h | Lag-time (AnxA1 8.0 mg/mL, mannitol 4 wt.%, sucrose 2.5 wt.%, glycyl-glycine 10 mM, pH 7.5): 15.1 h | Lag-time (AnxA1 8.0 mg/mL, mannitol 4 wt.%, sucrose 2.5 wt.%, glycyl-glycine 10 mM, pH 8.3): >65 h | Lag-time (AnxA1 8.0 mg/mL, mannitol 4 wt.%, sucrose 2.5 wt.%, glycyl-glycine 50 mM, pH 7.6): 3.3 h | Lag-time (AnxA1 8.0 mg/mL, mannitol 5 wt.%, glycyl-glycine 50 mM, pH 7.5): 3.1 h | Lag-time (AnxA1 8.0 mg/mL, mannitol 5 wt.%, glycyl-glycine 50 mM, pH 8.5): 41.7 h | Lag-time (AnxA1 8.1 mg/mL, mannitol 5 wt.%, glycyl-glycine 10 mM, pH 7.4): 13.7 h | Lag-time (AnxA1 8.1 mg/mL, sucrose 10 wt.%, glycyl-glycine 10 mM, pH 8.2): >65 h | Lag-time (AnxA1 8.4 mg/mL, mannitol 5 wt.%, glycyl-glycine 10 mM, pH 8.2): 41 h | Avg. lag-time (AnxA1 20 mg/mL (estimated from amount weighed, gel-like texture), 0.9% NaCl, pH 8.1 (not considered valid)): 0 h | lag-time (Example 11 composition at pH 7.5): 35 h and 34.7 h | lag-time (Milli Q water around neutral pH, no addition of salt): > 50 h | fibrillation in ThT assay (NaHCO3 or glycylglycine buffer at 20% hypotonicity, and at 20% and 100% hypertonicity): No fibrillation was observed | Lag-time (all samples containing 10 mM glycyl-glycine, pH 8, independent of AnxA1 concentration (1.5-4.8 mg/mL) and isotonicity modifier): > 65 h | fibrillation propensity (concentrations ≥5 mg/mL, 0.9% NaCl in Milli Q water, around neutral pH, degradation initiated before the analysis is started): very high fibrillation propensity | fibrillation in ThT assay (positive control sample in 0.9% saline): Fibrillation is observed | fibrillation propensity (saline at neutral pH around 7.3): very high fibrillation propensity

Source: patent US20240041977A1, “ANNEXIN A1 N-TERMINAL PEPTIDE FORMULATIONS AND METHODS” (ResoTher Pharma A/S, priority 2020, published 2024)
